Measurements: PubChem BioAssay AID248 (DTP/NCI, 2004)
“And” between values parts separate entries of the source, which are not always exact repeats. Equal values may be shown once. Inconclusive results and toxic doses are left out. No stated cut-off is given here; in the data, active means T/C of 150% or more; inactive means T/C below 125%.

Tested on: L1210 leukemia ip in BDF1 mice, survival T/C
Assay: NCI In Vivo Anticancer Drug Screen. Data for tumor model L1210 Leukemia (intraperitoneal) in B6D2F1 (BDF1) mice
Conditions: endpoint: mean survival time, higher = longer survival
Summary of the method: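 Read-out is survival time, reported as the treated-group measurement over the vehicle-control measurement.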

[1] = dose: 100.0 mg/kg/injection, schedule: Q01DX001 (ip), vehicle: saline
[2] = dose: 200.0 mg/kg/injection, schedule: Q01DX001 (ip), vehicle: saline
[3] = dose: 400.0 mg/kg/injection, schedule: Q01DX001 (ip), vehicle: saline
[4] = dose: 100.0 mg/kg/injection, schedule: Q01DX009 (ip), vehicle: saline
[5] = dose: 200.0 mg/kg/injection, schedule: Q01DX009 (ip), vehicle: saline

Measured: T/C

N/C(=N/N=C/c1ccc(N(CCCl)CCCl)cc1)N[N+](=O)[O-]
inactive: dose: 15.0 mg/kg/injection, schedule: Q01DX Z (ip), vehicle: methylcellulose (MC) 89 % of control | dose: 30.0 mg/kg/injection, schedule: Q01DX Z (ip), vehicle: methylcellulose (MC) 93 % of control | dose: 60.0 mg/kg/injection, schedule: Q01DX Z (ip), vehicle: methylcellulose (MC) 96 % of control | dose: 60.0 mg/kg/injection, schedule: Q01DX Z (oral), vehicle: methylcellulose (MC) 94 % of control | dose: 120.0 mg/kg/injection, schedule: Q01DX Z (ip), vehicle: methylcellulose (MC) 96 % of control | dose: 120.0 mg/kg/injection, schedule: Q01DX Z (oral), vehicle: methylcellulose (MC) 101 % of control | dose: 240.0 mg/kg/injection, schedule: Q01DX Z (ip), vehicle: methylcellulose (MC) 104 % of control | dose: 480.0 mg/kg/injection, schedule: Q01DX Z (ip), vehicle: methylcellulose (MC) 94 % of control

Cc1[nH]c(=O)nc2c1CCO2
inactive: [1] 98 % of control | [2] 104 % of control | [3] 101 % of control

COc1ccc(CO)cc1OC
inactive: dose: 100.0 mg/kg/injection, schedule: Q01DX009 (ip), vehicle: Klucel (hydroxypropylcellulose) (HPC) 101 % of control | dose: 100.0 mg/kg/injection, schedule: Q04DX003 (ip), vehicle: Klucel (hydroxypropylcellulose) (HPC) 97 % of control | dose: 200.0 mg/kg/injection, schedule: Q01DX009 (ip), vehicle: Klucel (hydroxypropylcellulose) (HPC) 113 % of control | dose: 200.0 mg/kg/injection, schedule: Q04DX003 (ip), vehicle: Klucel (hydroxypropylcellulose) (HPC) 94 % of control | dose: 400.0 mg/kg/injection, schedule: Q01DX009 (ip), vehicle: Klucel (hydroxypropylcellulose) (HPC) 97 % of control | dose: 400.0 mg/kg/injection, schedule: Q04DX003 (ip), vehicle: Klucel (hydroxypropylcellulose) (HPC) 94 % of control

CC(C)CCCC(C)C1CCC2C3CCC4=CC5(CCC4(C)C3CCC12C)SCCS5 (stereo not drawn)
inactive: dose: 50.0 mg/kg/injection, schedule: Q01DX009 (ip), vehicle: saline with Tween-80 98 % of control | dose: 100.0 mg/kg/injection, schedule: Q01DX009 (ip), vehicle: saline with Tween-80 101 % of control | dose: 200.0 mg/kg/injection, schedule: Q01DX009 (ip), vehicle: saline with Tween-80 95 % of control

CN(C)CCOCCN(C)C
inactive: [1] 102 % of control | [2] 105 % of control | [3] 102 % of control

COC1OCC(O)C(NC(=O)N(C)N=O)C1O (stereo not drawn)
inactive: dose: 6.25 mg/kg/injection, schedule: Q01DX009 (ip), vehicle: saline 117 % of control | dose: 12.5 mg/kg/injection, schedule: Q01DX009 (ip), vehicle: saline 118 % of control | dose: 16.5 mg/kg/injection, schedule: Q04DX003 (ip), vehicle: saline 108 % of control | dose: 27.3 mg/kg/injection, schedule: Q04DX003 (ip), vehicle: saline 112 % of control | dose: 33.0 mg/kg/injection, schedule: Q04DX003 (ip), vehicle: saline 118 % of control | [5] 92 % of control
active: dose: 25.0 mg/kg/injection, schedule: Q01DX009 (ip), vehicle: saline 150 % of control and 154 % of control | dose: 37.5 mg/kg/injection, schedule: Q01DX009 (ip), vehicle: citric acid 152 % of control | dose: 75.0 mg/kg/injection, schedule: Q01DX009 (ip), vehicle: citric acid 185 % of control | [4] 177 % of control and 224 % of control | dose: 150.0 mg/kg/injection, schedule: Q04DX003 (ip), vehicle: saline 167 % of control

CC1(C)CC[C@]2(C(=O)O)CC[C@]3(C)C(=CC[C@@H]4[C@@]5(C)CC[C@H](O)C(C)(C)[C@@H]5CC[C@]43C)[C@@H]2C1
inactive: dose: 50.0 mg/kg/injection, schedule: Q01DX009 (ip), vehicle: saline 94 % of control | dose: 100.0 mg/kg/injection, schedule: Q01DX001 (sc), vehicle: saline 103 % of control | [4] 94 % of control | dose: 100.0 mg/kg/injection, schedule: Q04DX002 (ip), vehicle: saline 97 % of control | dose: 200.0 mg/kg/injection, schedule: Q01DX001 (sc), vehicle: saline 103 % of control | [5] 97 % of control | dose: 200.0 mg/kg/injection, schedule: Q04DX002 (ip), vehicle: saline 97 % of control | dose: 400.0 mg/kg/injection, schedule: Q01DX001 (sc), vehicle: saline 103 % of control | dose: 400.0 mg/kg/injection, schedule: Q04DX002 (ip), vehicle: saline 94 % of control

CC(C)NNC(=O)c1ccncc1
inactive: dose: 25.0 mg/kg/injection, schedule: Q04DX003 (ip), vehicle: saline 107 % of control | dose: 50.0 mg/kg/injection, schedule: Q04DX003 (ip), vehicle: saline 102 % of control | dose: 100.0 mg/kg/injection, schedule: Q04DX003 (ip), vehicle: saline 96 % of control | dose: 200.0 mg/kg/injection, schedule: Q04DX003 (ip), vehicle: saline 98 % of control | dose: 400.0 mg/kg/injection, schedule: Q04DX003 (ip), vehicle: saline 104 % of control
